# Laboratory results reported in ChEMBL document CHEMBL1201862, “PubChem BioAssay data set” (2004).
#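 How tested: cells in 96-well plates exposed to compound for 48 hours at five concentrations. Abbreviation: GI50, concentration required for 50% inhibition of growth.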 Calls of active or inactive are those of the source. Rule as the data show it: active = GI50 up to about 1.1 µM and inactive = higher.
# Assays:
# Assay in all cases: NCI-60 cell line screen, 48 h
# [1] = system: 786-0
# [2] = system: A498
# [3] = system: A549
# [4] = system: ACHN
# [5] = system: BT-549
# [6] = system: CAKI-1
# [7] = system: CCRF-CEM
# [8] = system: COLO 205
# [9] = system: DU-145
# [10] = system: EKVX
# [11] = system: HCC 2998
# [12] = system: HCT-116
# [13] = system: HCT-15
# [14] = system: HL-60
# [15] = system: HOP-62
# [16] = system: HOP-92
# [17] = system: HT-29
# [18] = system: Hs-578T
# [19] = system: IGROV-1
# [20] = system: K562
# [21] = system: KM12
# [22] = system: LOX IMVI
# [23] = system: M14
# [24] = system: MCF7
# [25] = system: MDA-MB-231
# [26] = system: MDA-MB-435
# [27] = system: MDA-N
# [28] = system: MOLT-4
# [29] = system: Malme-3M
# [30] = system: NCI-H226
# [31] = system: NCI-H23
# [32] = system: NCI-H460
# [33] = system: NCI-H522
# [34] = system: NCI/ADR-RES
# [35] = system: OVCAR-3
# [36] = system: OVCAR-4
# [37] = system: OVCAR-5
# [38] = system: OVCAR-8
# [39] = system: PC-3
# [40] = system: RPMI-8226
# [41] = system: RXF 393
# [42] = system: SF-268
# [43] = system: SF-295
# [44] = system: SF-539
# [45] = system: SK-MEL-28
# [46] = system: SK-MEL-2
# [47] = system: SK-MEL-5
# [48] = system: SK-OV-3
# [49] = system: SN12C
# [50] = system: SNB-19
# [51] = system: SNB-75
# [52] = system: SR
# [53] = system: SW-620
# [54] = system: T47D
# [55] = system: TK-10
# [56] = system: U-251
# [57] = system: UACC-257
# [58] = system: UACC-62
# [59] = system: UO-31
smiles,measurement,setting,value
CC(C)c1ccc2c(c1)CCC1C(C)(CN)CCCC21C (stereo unspecified),GI50,[1],1.56 µM (inactive)
same,GI50,[2],1.61 µM (inactive)
same,GI50,[3],1.8 µM (inactive)
same,GI50,[4],1.74 µM (inactive)
same,GI50,[5],1.88 µM (inactive)
same,GI50,[6],1.41 µM (inactive)
same,GI50,[7],1.55 µM (inactive)
same,GI50,[8],0.575 µM (active)
same,GI50,[9],1.77 µM (inactive)
same,GI50,[10],1.86 µM (inactive)
same,GI50,[11],0.0438 µM (active)
same,GI50,[12],1.59 µM (inactive)
same,GI50,[13],1.54 µM
same,GI50,[14],1.31 µM (inactive)
same,GI50,[15],1.75 µM (inactive)
same,GI50,[16],1.55 µM (inactive)
same,GI50,[17],0.914 µM (active)
same,GI50,[18],1.63 µM (inactive)
same,GI50,[19],1.71 µM (inactive)
same,GI50,[20],0.551 µM (active)
same,GI50,[21],1.69 µM (inactive)
same,GI50,[22],1.43 µM (inactive)
same,GI50,[23],1.67 µM (inactive)
same,GI50,[24],1.44 µM (inactive)
same,GI50,[25],1.42 µM (inactive)
same,GI50,[26],1.44 µM (inactive)
same,GI50,[27],1.51 µM (inactive)
same,GI50,[28],1.32 µM (inactive)
same,GI50,[29],1.43 µM (inactive)
same,GI50,[30],1.91 µM (inactive)
same,GI50,[31],1.7 µM (inactive)
same,GI50,[32],1.22 µM (inactive)
same,GI50,[33],1.79 µM (inactive)
same,GI50,[34],1.64 µM (inactive)
same,GI50,[35],1.7 µM (inactive)
same,GI50,[36],1.61 µM (inactive)
same,GI50,[37],1.76 µM (inactive)
same,GI50,[38],1.73 µM (inactive)
same,GI50,[39],1.59 µM (inactive)
same,GI50,[40],0.653 µM (active)
same,GI50,[41],1.56 µM (inactive)
same,GI50,[42],1.65 µM (inactive)
same,GI50,[43],1.82 µM (inactive)
same,GI50,[44],1.79 µM (inactive)
same,GI50,[45],1.73 µM (inactive)
same,GI50,[46],1.73 µM (inactive)
same,GI50,[47],1.8 µM (inactive)
same,GI50,[48],2.11 µM (inactive)
same,GI50,[49],1.71 µM (inactive)
same,GI50,[50],1.77 µM (inactive)
same,GI50,[51],1.94 µM (inactive)
same,GI50,[52],1.1 µM (active)
same,GI50,[53],1.29 µM (inactive)
same,GI50,[54],1.45 µM (inactive)
same,GI50,[55],1.7 µM (inactive)
same,GI50,[56],1.38 µM (inactive)
same,GI50,[57],1.69 µM (inactive)
same,GI50,[58],1.77 µM (inactive)
same,GI50,[59],1.39 µM (inactive)
c1cncc(-c2cc(-c3cc(-c4cccnc4)[nH]n3)n[nH]2)c1,GI50,[1],> 100 µM (inactive)
same,GI50,[2],> 100 µM (inactive)
same,GI50,[3],> 100 µM (inactive)
same,GI50,[4],> 100 µM (inactive)
same,GI50,[5],> 100 µM (inactive)
same,GI50,[6],> 100 µM (inactive)
same,GI50,[8],> 100 µM (inactive)
same,GI50,[9],> 100 µM (inactive)
same,GI50,[10],> 100 µM (inactive)
same,GI50,[11],> 100 µM (inactive)
same,GI50,[12],> 100 µM (inactive)
same,GI50,[13],> 100 µM
same,GI50,[14],> 100 µM (inactive)
same,GI50,[15],> 100 µM (inactive)
same,GI50,[16],> 100 µM (inactive)
same,GI50,[17],> 100 µM (inactive)
same,GI50,[18],> 100 µM (inactive)
same,GI50,[19],> 100 µM (inactive)
same,GI50,[20],> 100 µM (inactive)
same,GI50,[21],> 100 µM (inactive)
same,GI50,[22],> 100 µM (inactive)
same,GI50,[23],> 100 µM (inactive)
same,GI50,[24],> 100 µM (inactive)
same,GI50,[25],> 100 µM (inactive)
same,GI50,[26],> 100 µM (inactive)
same,GI50,[27],> 100 µM (inactive)
same,GI50,[28],> 100 µM (inactive)
same,GI50,[29],> 100 µM (inactive)
same,GI50,[30],> 100 µM (inactive)
same,GI50,[31],> 100 µM (inactive)
same,GI50,[32],> 100 µM (inactive)
same,GI50,[33],> 100 µM (inactive)
same,GI50,[34],> 100 µM (inactive)
same,GI50,[35],> 100 µM (inactive)
same,GI50,[36],> 100 µM (inactive)
same,GI50,[37],> 100 µM (inactive)
same,GI50,[38],> 100 µM (inactive)
same,GI50,[39],> 100 µM (inactive)
same,GI50,[40],> 100 µM (inactive)
same,GI50,[41],> 100 µM (inactive)
same,GI50,[42],> 100 µM (inactive)
same,GI50,[43],> 100 µM (inactive)
same,GI50,[44],> 100 µM (inactive)
same,GI50,[45],> 100 µM (inactive)
same,GI50,[46],> 100 µM (inactive)
same,GI50,[47],> 100 µM (inactive)
same,GI50,[48],> 100 µM (inactive)
same,GI50,[49],> 100 µM (inactive)
same,GI50,[50],> 100 µM (inactive)
same,GI50,[51],> 100 µM (inactive)
same,GI50,[52],> 100 µM (inactive)
same,GI50,[53],> 100 µM (inactive)
same,GI50,[54],> 100 µM (inactive)
same,GI50,[55],> 100 µM (inactive)
same,GI50,[56],> 100 µM (inactive)
same,GI50,[57],> 100 µM (inactive)
same,GI50,[58],> 100 µM (inactive)
same,GI50,[59],> 100 µM (inactive)
CC1CCC(O)/C=C/C(=O)OC(C)C(O)/C=C/C(=O)O1 (stereo unspecified),GI50,[1],> 92.9 µM (inactive)
same,GI50,[2],> 100 µM (inactive)
same,GI50,[3],> 100 µM (inactive)
same,GI50,[4],> 68.4 µM (inactive)
same,GI50,[5],41.8 µM (inactive)
same,GI50,[6],> 100 µM (inactive)
same,GI50,[7],25.4 µM (inactive)
same,GI50,[8],64 µM (inactive)
same,GI50,[9],> 100 µM (inactive)
same,GI50,[10],> 100 µM (inactive)
same,GI50,[11],> 100 µM (inactive)
same,GI50,[12],> 60.5 µM (inactive)
same,GI50,[13],> 94 µM
same,GI50,[14],37.2 µM (inactive)
same,GI50,[15],> 100 µM (inactive)
same,GI50,[16],52.8 µM (inactive)
same,GI50,[17],> 100 µM (inactive)
same,GI50,[18],> 100 µM (inactive)
same,GI50,[19],> 100 µM (inactive)
same,GI50,[20],41.9 µM (inactive)
same,GI50,[21],> 100 µM (inactive)
same,GI50,[22],> 100 µM (inactive)
same,GI50,[23],> 56.1 µM (inactive)
same,GI50,[24],> 92.9 µM (inactive)
same,GI50,[25],> 100 µM (inactive)
same,GI50,[26],> 100 µM (inactive)
same,GI50,[27],> 95.9 µM (inactive)
same,GI50,[28],19.1 µM (inactive)
same,GI50,[29],> 100 µM (inactive)
same,GI50,[30],> 100 µM (inactive)
same,GI50,[31],> 73.5 µM (inactive)
same,GI50,[32],> 100 µM (inactive)
same,GI50,[33],35.6 µM (inactive)
same,GI50,[34],> 100 µM (inactive)
same,GI50,[35],57.1 µM (inactive)
same,GI50,[36],> 100 µM (inactive)
same,GI50,[37],> 100 µM (inactive)
same,GI50,[38],> 100 µM (inactive)
same,GI50,[39],> 100 µM (inactive)
same,GI50,[40],74.1 µM (inactive)
same,GI50,[41],> 62.1 µM (inactive)
same,GI50,[42],> 100 µM (inactive)
same,GI50,[43],> 100 µM (inactive)
same,GI50,[44],> 86.7 µM (inactive)
same,GI50,[45],> 100 µM (inactive)
same,GI50,[46],> 100 µM (inactive)
same,GI50,[47],> 100 µM (inactive)
same,GI50,[48],> 100 µM (inactive)
same,GI50,[49],> 100 µM (inactive)
same,GI50,[50],> 100 µM (inactive)
same,GI50,[51],> 100 µM (inactive)
same,GI50,[52],51.5 µM (inactive)
same,GI50,[53],60.4 µM (inactive)
same,GI50,[54],> 100 µM (inactive)
same,GI50,[55],> 83.8 µM (inactive)
same,GI50,[56],> 100 µM (inactive)
same,GI50,[57],> 100 µM (inactive)
same,GI50,[58],> 100 µM (inactive)
same,GI50,[59],> 100 µM (inactive)
